Laboratory results reported in patent US7045528B2, “Benzofused heterozryl amide derivatives of thienopyridines useful as therapeutic agents, pharmaceutical compositions including the same, and methods for their use” (Agouron Pharmaceuticals, Inc., priority 2002, dated 2006).

Columns and labels:
Huvec = experiment: bFGF Huvec proliferation; assay type: cell-based, human; settings: Homo sapiens, HUVEC
KDR (VEGFR2) = target: T1, KDR (VEGFR2) (Homo sapiens, UniProt P35968); experiment: KDR (VEGFR2) phosphorylation in PAE-KDR cells assay; assay type: cell-based; settings: PAE cells overexpressing human KDR, VEGF stimulated; read-out: PAE KDR autophos IC50 (nM) AVG
T1 construct: expressed in transfected cells; host or cells: porcine aorta endothelial (PAE)-KDR cells
Procedure: KDR (VEGFR2) Phosphorylation in PAE-KDR Cells Assay
This assay determines the ability of a test compound to inhibit the autophosphorylation of KDR in porcine aorta endothelial (PAE)-KDR cells. PAE cells that overexpress human KDR were used in this assay. The cells were cultured in Ham's F12 media supplemented with 10% fetal bovine serum (FBS) and 400 ug/mL G418. Thirty thousands cells were seeded into each well of a 96-well plate in 75 μL of growth media and allowed to attach for 6 hours at 37° C. Cells were then exposed to the starvation media (Ham's F12 media supplemented with 0.1% FBS) for 16 hours. After the starvation period was over, 10 μL of test agent in 5% DMSO in starvation media were added to the test wells and 10 μL of the vehicle (5% DMSO in starvation media) were added into the control wells. The final DMSO concentration in each well was 0.5%. Plates were incubated at 37° C. for 1 hour and the cells were then stimulated with 500 ng/ml VEGF (commercially available from R & D System) in the presence of 2 mM Na3VO4 for 8 minutes. The cells were washed once with 1 mm Na3VO4 in HBSS and lysed by adding 50 μL per well of lysis buffer. One hundred μL of dilution buffer were then added to each well and the diluted cell lysate was transferred to a 96-well goat ant-rabbit coated plate (commercially available from Pierce) which was pre-coated with Rabbit anti Human Anti-flk-1 C-20 antibody (commercially available from Santa Cruz). The plates were incubated at room temperature for 2 hours and washed seven times with 1% Tween 20 in PBS. HRP-PY20 (commercially available from Santa Cruz) was diluted and added to the plate for a 30-minute incubation. Plates were then washed again and TMB peroxidase substrate (commercially available from Kirkegaard & Perry) was added for a 10-minute incubation. One hundred μL of 0.09 N H2SO4 was added to each well of the 96-well plates to stop the reaction. Phosphorylation status was assessed by spectrophotometer reading at 450 nm. IC50 values were calculated by curve fitting using a four-parameter analysis.

[1] = target: T2, unphosphorylated VEGF-R2Δ50 (FLVK) (Homo sapiens, UniProt P35968, DEL940-989/E990V); experiment: VEGF-R2 coupled spectrophotometric assay, unphosphorylated VEGF-R2Δ50 (FLVK); assay type: biochemical; settings: unphosphorylated VEGF-R2Δ50; for inhibition at 0.05 µM: 50 nM compound, read-out: FLVK (% inh @ 50 nM)
T2 construct: VEGF-R2Δ50 contains residues 806–939 and 990–1171; made in house; host or cells: baculovirus/insect cell system
Method in brief: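 Ki obtained by Morrison-equation fitting of activity at varied compound levels; reaction started with 5–40 nM enzyme. Non-autophosphorylated kinase construct (insect cell-expressed) with 3 mM ATP, 20 mM poly(E4Y1), 60 mM MgCl2 plus 2 mM MnCl2, pH 7.5 HEPES; NADH loss at 340 nm via PK/LDH coupling.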

[2] = system: human umbilical vein endothelial cells (HUVEC); experiment: HUVEC+VEGF proliferation assay; assay type: cell-based; settings: Homo sapiens, HUVEC; VEGF 6 ng/mL, 72 h, MTT
Method in brief: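 Exponentially growing passage 3–4 HUVEC were starved 24 h in F12K + 1% FBS, given compound (0.1% final DMSO) 1 h before 6 ng/mL final VEGF, then cultured 72 h. Proliferation was read as MTT dye reduction (4 h exposure), absorbance at 595 nm.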

T2 sequence (P35968 with tags, fused parts or gaps DEL940-989/E990V limits assumed): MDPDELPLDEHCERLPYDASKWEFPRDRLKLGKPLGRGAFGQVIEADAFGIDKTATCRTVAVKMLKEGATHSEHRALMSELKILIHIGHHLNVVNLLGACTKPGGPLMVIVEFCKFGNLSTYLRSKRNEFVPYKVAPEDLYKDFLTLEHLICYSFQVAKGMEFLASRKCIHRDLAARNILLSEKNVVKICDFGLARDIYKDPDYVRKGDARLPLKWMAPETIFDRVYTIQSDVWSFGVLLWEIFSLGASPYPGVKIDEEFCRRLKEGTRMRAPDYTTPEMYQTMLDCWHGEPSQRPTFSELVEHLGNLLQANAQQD
T1 sequence (P35968 20-1356): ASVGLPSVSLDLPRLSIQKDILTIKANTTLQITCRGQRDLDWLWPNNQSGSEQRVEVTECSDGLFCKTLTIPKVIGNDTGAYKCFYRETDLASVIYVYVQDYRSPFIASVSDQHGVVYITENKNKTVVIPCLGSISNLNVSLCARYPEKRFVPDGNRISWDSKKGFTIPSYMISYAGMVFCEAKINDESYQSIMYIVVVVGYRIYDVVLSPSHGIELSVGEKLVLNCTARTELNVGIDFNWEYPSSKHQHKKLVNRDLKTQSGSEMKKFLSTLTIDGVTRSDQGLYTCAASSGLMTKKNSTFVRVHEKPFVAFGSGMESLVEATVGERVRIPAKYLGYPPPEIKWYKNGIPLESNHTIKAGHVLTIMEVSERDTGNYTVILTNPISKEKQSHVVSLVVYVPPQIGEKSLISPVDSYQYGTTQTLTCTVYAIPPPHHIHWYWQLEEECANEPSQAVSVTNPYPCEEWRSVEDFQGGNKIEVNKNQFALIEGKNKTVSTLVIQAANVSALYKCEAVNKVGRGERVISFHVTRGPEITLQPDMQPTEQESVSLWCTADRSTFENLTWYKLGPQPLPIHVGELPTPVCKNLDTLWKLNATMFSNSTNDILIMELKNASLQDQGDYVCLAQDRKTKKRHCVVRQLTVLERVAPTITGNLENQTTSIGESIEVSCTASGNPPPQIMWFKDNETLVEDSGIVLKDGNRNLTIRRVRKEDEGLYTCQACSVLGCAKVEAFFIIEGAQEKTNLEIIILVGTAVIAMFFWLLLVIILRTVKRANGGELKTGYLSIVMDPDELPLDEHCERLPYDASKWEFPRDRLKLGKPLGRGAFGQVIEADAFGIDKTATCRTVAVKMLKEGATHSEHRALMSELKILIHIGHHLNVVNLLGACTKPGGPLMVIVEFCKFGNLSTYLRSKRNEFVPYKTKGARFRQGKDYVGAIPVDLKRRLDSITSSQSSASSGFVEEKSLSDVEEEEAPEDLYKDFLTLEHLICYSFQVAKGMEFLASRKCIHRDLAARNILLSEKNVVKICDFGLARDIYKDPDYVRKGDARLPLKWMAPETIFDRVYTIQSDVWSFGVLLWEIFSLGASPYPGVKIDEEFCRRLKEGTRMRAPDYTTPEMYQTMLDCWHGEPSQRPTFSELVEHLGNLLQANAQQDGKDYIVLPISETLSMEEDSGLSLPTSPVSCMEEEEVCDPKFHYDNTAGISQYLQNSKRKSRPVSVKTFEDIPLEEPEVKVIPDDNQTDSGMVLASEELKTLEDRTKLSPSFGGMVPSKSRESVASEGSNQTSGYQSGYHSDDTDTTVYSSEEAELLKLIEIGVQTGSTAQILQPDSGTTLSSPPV

Compound	IC50 (Huvec)	IC50 (KDR (VEGFR2))	inhibition at 0.05 µM [1]	Ki [1]	IC50 [2]
CNC(=O)c1c(C)sc2cc(Oc3ccnc4cc(-c5nccn5C)sc34)ccc12 [Example 1, 2-methyl-6-(2-[1-methyl-1H-imidazol-2-yl]thieno[3,2-b]pyridin-7-yloxy)benzo[b]thiophene-3-carboxylic acid methylamide]	122 nM	0.31 nM	92%	1.02 nM	0.68 nM
CNC(=O)c1c(C)sc2cc(Oc3ccnc4cc(C(=O)N5CCC[C@H]5COC)sc34)ccc12 [Example 2, 6-(2-[(S)-2-(methoxymethyl)pyrrolidine-1-carbonyl]thieno[3,2-b]pyridin-7-yloxy)-2-methylbenzo[b]thiophene-3-carboxylic acid methylamide]	3330 nM	1.8 nM	75%	4.14 nM	2.3 nM
CNC(=O)c1c(C)sc2cc(Oc3ccnc4cc(C(=O)N5CCC[C@H]5CO)sc34)ccc12 [Example 3]	942 nM	0.9 nM	59%	0.811 nM	0.442 nM
CNC(=O)c1c(C)sc2cc(Oc3ccnc4cc(C(=O)N5CC[C@@H](OC)C5)sc34)ccc12 [Example 4, 6-(2-[(R)-3-methoxypyrrolidine-1-carbonyl]thieno[3,2-b]pyridin-7-yloxy)-2-methylbenzo[b]thiophene-3-carboxylic acid methylamide]	–	0.47 nM	88%	2.58 nM	0.404 nM
CNC(=O)c1c(C)sc2cc(Oc3ccnc4cc(C(=O)N5CC[C@@H](O)C5)sc34)ccc12 [Example 6, 6-(2-[(R)-3-hydroxypyrrolidine-1-carbonyl]thieno[3,2-b]pyridin-7-yloxy)-2-methylbenzo[b]thiophene-3-carboxylic acid methylamide]	145 nM	–	94%	0.721 nM	1.2 nM
CNC(=O)c1c(C)oc2cc(Oc3ccnc4cc(C(=O)N5CC[C@@H](OC)C5)sc34)ccc12 [Example 12, 6-(2-[3-methoxypyrrolidine-1-carbonyl]thieno[3,2-b]pyridin-7-yloxy)-2-methylbenzofuran-3-carboxylic acid methylamide]	20 nM	0.14 nM	100%	0.314 nM	0.26 nM
CNC(=O)c1c(C)oc2cc(Oc3ccnc4cc(-c5nccn5C)sc34)ccc12 [Example 13]	27 nM	0.21 nM	97%	0.322 nM	0.082 nM
CNC(=O)c1c(C)n(C)c2cc(Oc3ccnc4cc(-c5nccn5C)sc34)ccc12 [Example 17, 1,2-dimethyl-6-(2-[1-methyl-1H-imidazol-2-yl]thieno[3,2-b]pyridin-7-yloxy)-1H-indole-3-carboxylic acid methylamide]	847 nM	0.47 nM	77%	2.77 nM	1.2 nM
CNC(=O)c1c(C)n(C)c2cc(Oc3ccnc4cc(C(=O)N5CC[C@@H](OC)C5)sc34)ccc12 [Example 18, 1,2-dimethyl-6-(2-[3-methoxy-pyrrolidine-1-carbonyl]thieno[3,2-b]pyridin-7-yloxy)-1H-indole-3-carboxylic acid methylamide]	1000 nM	0.62 nM	78%	2.37 nM	0.64 nM
CNC(=O)c1c(C)n(C)c2cc(Oc3ccnc4cc(C(=O)N5CC[C@@H](O)C5)sc34)ccc12 [Example 19, 1,2-dimethyl-6-(2-[3-hydroxy-pyrrolidine-1-carbonyl]thieno[3,2-b]pyridin-7-yloxy)-1H-indole-3-carboxylic acid methylamide]	10000 nM	1.7 nM	75%	2.63 nM	2.7 nM
Cc1c(C(=O)NC2CC2)c2ccc(Oc3ccnc4cc(-c5nccn5C)sc34)cc2n1C [Example 20, 1,2-Dimethyl-6-[2-(1-methyl-1H-imidazol-2-yl)-thieno[3,2-b]pyridin-7-yloxy]-1H-indole-3-carboxylic acid cyclopropylamide]	1900 nM	0.217 nM	99%	0.082 nM	0.19 nM
CCCNC(=O)c1c(C)n(C)c2cc(Oc3ccnc4cc(-c5nccn5C)sc34)ccc12 [Example 61, 1,2-Dimethyl-6-[2-(1-methyl-1H-imidazol-2-yl)thieno[3,2-b]pyridin-7-yloxy]-1H-indole-3-carboxylic acid propylamide]	4000 nM	0.4 nM	89%	–	0.605 nM
CCCCNC(=O)c1c(C)n(C)c2cc(Oc3ccnc4cc(-c5nccs5)sc34)ccc12 [Example 62, 1,2-Dimethyl-6-(2-thiazol-2-yl-thieno[3,2-b]pyridin-7-yloxy)-1H-indole-3-carboxylic acid butylamide]	619 nM	0.24 nM	91%	0.57 nM	2.15 nM
